Test systems include OVCAR-3; EKVX; NCI-H522; SK-MEL-5; K562; HOP-62; HCT-116; UO-31; HOP-92; RPMI-8226; DU-145; HCC 2998; IGROV-1; RXF 393; KM12; HCT-15; SW-620; TK-10; UACC-257; CCRF-CEM.
What all share (assay): NCI-60 cell line screen, 48 h

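Method: 48-hour compound exposure of cells in 96-well plates, five concentrations, linear interpolation of endpoints. GI50 marks 50% less growth.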 Active and inactive are the calls of the source. Rule as the data show it: active = GI50 up to about 1.1 µM and inactive = higher.

This note sets out measurements from ChEMBL document CHEMBL1201862, “PubChem BioAssay data set” (2004).

Regarding `Cc1cc(N2CCCCC2)nc2ccc(Cc3ccc4nc(N5CCCCC5)cc(C)c4c3)cc12`, the GI50 in the assay on OVCAR-3 is > 100 µM (inactive); with EKVX, 18.2 µM (inactive); in the assay with NCI-H522 it was 83.2 µM (inactive); in the assay with SK-MEL-5, 48.4 µM (inactive); with K562 it was 32.1 µM (inactive); in the assay with HOP-62, > 100 µM (inactive). For the same compound, the GI50 is 98.9 µM (inactive) with HCT-116; > 100 µM (inactive) in the assay on UO-31; > 100 µM (inactive) with HOP-92; 35.8 µM (inactive) in the assay with RPMI-8226; > 100 µM (inactive) in the assay on DU-145; 22.8 µM (inactive) with HCC 2998. The GI50 with IGROV-1 was > 100 µM (inactive); in the assay with RXF 393, > 100 µM (inactive); with KM12, > 100 µM (inactive); with HCT-15, 79.6 µM; with SW-620 it was > 100 µM (inactive); with TK-10, > 100 µM (inactive). In the assay on UACC-257, the GI50 is 53.6 µM (inactive).

For the compound `Cc1ccc(N)c(S)c1`, the GI50 with OVCAR-3 is 21.3 µM (inactive); in the assay with EKVX, 16.2 µM (inactive); with NCI-H522 it was 17.9 µM (inactive); in the assay with SK-MEL-5, 16.5 µM (inactive); in the assay with K562, 28.6 µM (inactive); in the assay on CCRF-CEM, 18 µM (inactive). Also, the GI50 in the assay on HOP-62 was 21.5 µM (inactive); in the assay on HCT-116, 32.1 µM (inactive); in the assay with UO-31, 13.8 µM (inactive); in the assay on HOP-92, 16.6 µM (inactive); with DU-145, 15.7 µM (inactive); in the assay on HCC 2998 it was 32.1 µM (inactive). Also, the GI50 with IGROV-1 was 17.7 µM (inactive); with RXF 393, 16.8 µM (inactive); with KM12, 18.3 µM (inactive); with HCT-15, 16.7 µM; in the assay on SW-620, 17.6 µM (inactive); with TK-10, 21.8 µM (inactive). Also, the GI50 with UACC-257 was 23.3 µM (inactive).

As to `O=c1c2c(sc3ccccc13)NCN(CCc1ccccc1)C2`, the GI50 is 73.3 µM (inactive) with OVCAR-3; 30.8 µM (inactive) in the assay on EKVX; 31.7 µM (inactive) with NCI-H522; 14.8 µM (inactive) with SK-MEL-5; 19.7 µM (inactive) in the assay with K562; 43.9 µM (inactive) with CCRF-CEM. In addition, the GI50 in the assay on HOP-62 is 34.6 µM (inactive); with HCT-116, 23.4 µM (inactive); in the assay on UO-31, 33.7 µM (inactive); in the assay with HOP-92, 53 µM (inactive); with RPMI-8226, 19.9 µM (inactive); with DU-145 it was 70.5 µM (inactive). For the same compound, the GI50 in the assay with HCC 2998 was 22.1 µM (inactive); in the assay on IGROV-1 it was 24.7 µM (inactive); with RXF 393 it was 36.3 µM (inactive); in the assay on KM12, 27.9 µM (inactive); in the assay on SW-620, 31.8 µM (inactive); with UACC-257, 33.5 µM (inactive).

As to `CN1CC[C@@H](c2c(O)cc(O)c3c(=O)cc(-c4ccccc4Cl)oc23)[C@@H](O)C1`, the GI50 is 0.0885 µM (active) with EKVX; 0.0655 µM (active) in the assay on NCI-H522; 0.0248 µM (active) in the assay on SK-MEL-5; 0.167 µM (active) in the assay on K562; 0.0468 µM (active) in the assay with CCRF-CEM; 0.0324 µM (active) in the assay on HOP-62. The GI50 in the assay with HCT-116 was 0.02 µM (active); in the assay on UO-31, 0.0266 µM (active); in the assay with HOP-92, 0.0556 µM (active); in the assay with RPMI-8226, 0.0326 µM (active); with DU-145 it was 0.0411 µM (active); with HCC 2998 it was 0.0693 µM (active). In addition, the GI50 is 0.0304 µM (active) with IGROV-1; 0.0169 µM (active) with RXF 393; 0.0303 µM (active) in the assay with KM12; 0.0399 µM in the assay with HCT-15; 0.0333 µM (active) in the assay on SW-620; 0.0538 µM (active) in the assay with TK-10. Moreover, in the assay on UACC-257, the GI50 was 0.0552 µM (active).

Turning to `c1ccc([P+](CCCCCC[P+](c2ccccc2)(c2ccccc2)c2ccccc2)(c2ccccc2)c2ccccc2)cc1`, the GI50 in the assay with OVCAR-3 is 19.8 µM (inactive); in the assay on EKVX, 54.5 µM (inactive); in the assay with NCI-H522 it was 7.24 µM (inactive); in the assay on K562, 11.7 µM (inactive); in the assay with CCRF-CEM, 13.1 µM (inactive); with HOP-62 it was 9.18 µM (inactive). Moreover, the GI50 is 4.51 µM (inactive) in the assay on HCT-116; > 100 µM (inactive) with UO-31; 8.32 µM (inactive) in the assay on HOP-92; 11.9 µM (inactive) in the assay on DU-145; 46.7 µM (inactive) in the assay with HCC 2998; 3.84 µM (inactive) in the assay on IGROV-1. The GI50 in the assay with RXF 393 is 11.6 µM (inactive); in the assay on KM12, 3.85 µM (inactive); in the assay on HCT-15, more than 100 µM; with SW-620, 18.5 µM (inactive); with TK-10, 8.36 µM (inactive); with UACC-257, 1.59 µM (inactive).

On to `C=C(C)C1CC2(C)C(C)CC(O)CC2C(OC(=O)C=C(C)C)C1O` (centres undefined), for which the GI50 in the assay with EKVX is 34.8 µM (inactive); in the assay with NCI-H522, 24.3 µM (inactive); in the assay with SK-MEL-5, 19.2 µM (inactive); in the assay on K562, 32.8 µM (inactive); in the assay on CCRF-CEM, 30.8 µM (inactive); in the assay on HCT-116, 52.7 µM (inactive). For the same compound, the GI50 was 24.4 µM (inactive) in the assay with UO-31; 23.2 µM (inactive) in the assay on HOP-92; 60.5 µM (inactive) with DU-145; 43.8 µM (inactive) in the assay on HCC 2998; 40.5 µM (inactive) in the assay with IGROV-1; 26.9 µM (inactive) in the assay with RXF 393. Besides, the GI50 with KM12 is 33.7 µM (inactive); with HCT-15 it was 27.3 µM; in the assay with SW-620, > 10 µM (inactive); with TK-10, 49.2 µM (inactive); in the assay with UACC-257, 53.1 µM (inactive).

For `C#CC(O)/C=C/C(O)CCCC(O)CC#CC(O)C#CC(O)CCCC(O)/C=C/CCCC(=O)CCCCCCCCCCCCCCCC(O)C(O)C#CC(=O)O` (centres undefined), the GI50 with EKVX is > 50 µM (inactive); with NCI-H522 it was 8.41 µM (inactive); with SK-MEL-5 it was > 50 µM (inactive); with K562 it was > 50 µM (inactive); with CCRF-CEM it was 14.1 µM (inactive); in the assay on HOP-62, > 50 µM (inactive). The GI50 in the assay on HCT-116 was > 50 µM (inactive); in the assay on UO-31, 10.8 µM (inactive); in the assay with HOP-92, > 50 µM (inactive); in the assay with RPMI-8226, > 50 µM (inactive); in the assay with DU-145 it was > 50 µM (inactive); in the assay with HCC 2998, > 50 µM (inactive). Moreover, the GI50 is 9.79 µM (inactive) with IGROV-1; > 50 µM (inactive) in the assay with RXF 393; > 50 µM (inactive) with KM12; more than 50 µM with HCT-15; > 50 µM (inactive) in the assay with TK-10; > 50 µM (inactive) with UACC-257.

Turning to `CN(C)CCCNc1ccc2nnn3c4ccc(OC(=O)c5ccccc5)cc4c(=O)c1c23`, the GI50 is 11.5 µM (inactive) in the assay with OVCAR-3; 4.24 µM (inactive) in the assay with EKVX; 2.84 µM (inactive) with NCI-H522; 1.81 µM (inactive) in the assay on K562; 1.08 µM (active) with CCRF-CEM; 5.92 µM (inactive) in the assay on HOP-62. Further, the GI50 in the assay on HCT-116 was 3.15 µM (inactive); with UO-31 it was 4.14 µM (inactive); in the assay with HOP-92 it was 12.6 µM (inactive); in the assay on RPMI-8226 it was 3.29 µM (inactive); in the assay with DU-145, 8.26 µM (inactive); in the assay on HCC 2998 it was 9.08 µM (inactive). Moreover, the GI50 is 2.11 µM (inactive) with IGROV-1; 4.44 µM (inactive) in the assay on RXF 393; 4.92 µM (inactive) in the assay on KM12; 5.36 µM in the assay with HCT-15; 4.53 µM (inactive) in the assay with SW-620; 7.8 µM (inactive) with TK-10. Besides, the GI50 in the assay with UACC-257 is 16 µM (inactive).

Consider `CC1=C(C)C2(C#N)C(=O)N3C(=NC(c4ccccc4)NC3c3ccccc3)C2(C#N)C(c2ccccc2)N1` (centres undefined), for which the GI50 in the assay on EKVX, in the assay on NCI-H522, with SK-MEL-5, with K562, with CCRF-CEM and in the assay with HOP-62 was > 100 µM (inactive) in each case. The GI50 in the assay with HCT-116, in the assay on UO-31, with HOP-92, in the assay with RPMI-8226, in the assay on DU-145 and in the assay on HCC 2998 was > 100 µM (inactive) throughout. The GI50 with IGROV-1 is > 100 µM (inactive); in the assay with RXF 393, > 100 µM (inactive); in the assay with KM12 it was > 100 µM (inactive); in the assay with HCT-15, more than 100 µM; in the assay on SW-620, > 100 µM (inactive); in the assay on TK-10 it was > 100 µM (inactive). Besides, the GI50 with UACC-257 is > 100 µM (inactive).

Take `O=S1(=O)CCN(Cc2ccccn2)CC1`: the GI50 with OVCAR-3 is 4.49 µM (inactive); in the assay on EKVX, > 100 µM (inactive); in the assay with NCI-H522, > 100 µM (inactive); in the assay with SK-MEL-5, > 100 µM (inactive); in the assay with K562 it was > 100 µM (inactive); with HOP-62, > 100 µM (inactive). Also, the GI50 in the assay on HCT-116, in the assay on UO-31, in the assay with HOP-92, in the assay on RPMI-8226, with DU-145 and in the assay with HCC 2998 was > 100 µM (inactive) in each case. The GI50 was > 100 µM (inactive) in the assay with IGROV-1; > 100 µM (inactive) with RXF 393; > 100 µM (inactive) in the assay on KM12; more than 100 µM in the assay with HCT-15; > 100 µM (inactive) in the assay on SW-620; > 100 µM (inactive) with TK-10. Besides, in the assay on UACC-257, the GI50 is > 100 µM (inactive).

Regarding `CN1C(Cl)=NS(=O)(=O)c2ccccc21`, the GI50 in the assay on OVCAR-3 is > 100 µM (inactive); in the assay with EKVX, > 100 µM (inactive); with NCI-H522, 28 µM (inactive); in the assay on SK-MEL-5, > 100 µM (inactive); in the assay on K562, > 100 µM (inactive); in the assay with CCRF-CEM, 34 µM (inactive). Moreover, the GI50 with HOP-62, in the assay with HCT-116, in the assay with UO-31, in the assay with HOP-92, in the assay on DU-145 and with HCC 2998 was > 100 µM (inactive) each time. Besides, the GI50 in the assay on IGROV-1 was > 100 µM (inactive); in the assay with RXF 393, > 100 µM (inactive); in the assay on KM12 it was > 100 µM (inactive); in the assay with HCT-15, more than 100 µM; with SW-620 it was > 100 µM (inactive); in the assay with TK-10, > 100 µM (inactive). Besides, the GI50 in the assay on UACC-257 is > 100 µM (inactive).
